# Assay results reported in ChEMBL document CHEMBL4819103, “Discovery of selective fragment-sized immunoproteasome inhibitors” (Eur J Med Chem, 2021).
# Columns and labels:
# [1] = molecular target: T1, Proteasome subunit beta type-8 (Homo sapiens, UniProt P28062); experiment: Inhibition of human chymotrypsin-like beta 5i subunit of iCP using suc-LLVY-AMC as flurogenic substrate for 90 mins by fluorescence-based assay
# T1 sequence (P28062 whole entry): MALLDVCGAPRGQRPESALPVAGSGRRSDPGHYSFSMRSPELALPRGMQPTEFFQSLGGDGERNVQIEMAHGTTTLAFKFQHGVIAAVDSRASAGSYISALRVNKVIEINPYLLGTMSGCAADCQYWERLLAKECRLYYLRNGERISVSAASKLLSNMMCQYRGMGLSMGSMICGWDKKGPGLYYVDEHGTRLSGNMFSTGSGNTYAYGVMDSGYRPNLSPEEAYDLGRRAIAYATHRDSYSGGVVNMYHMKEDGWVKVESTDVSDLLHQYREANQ
# [2] = molecular target: T2, Proteasome Macropain subunit MB1 (Homo sapiens) (UniProt P28074); experiment: Inhibition of beta 5 chymotrypsin-like activity (unknown origin) at 100 uM using Suc-LLVY-AMC as substrate for 90 mins by fluorescence based assay; parameters: scale not given: the % may be the effect or the level left
# T2 sequence (whole entry): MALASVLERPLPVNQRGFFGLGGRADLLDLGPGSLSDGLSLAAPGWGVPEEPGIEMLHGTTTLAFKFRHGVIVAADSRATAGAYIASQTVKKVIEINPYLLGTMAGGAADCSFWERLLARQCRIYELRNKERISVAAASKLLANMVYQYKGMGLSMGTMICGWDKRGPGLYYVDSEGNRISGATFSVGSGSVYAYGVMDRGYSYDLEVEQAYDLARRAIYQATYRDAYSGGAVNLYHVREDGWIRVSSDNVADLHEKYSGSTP
# [3] = Thiol reactivity of the compound assessed as TNB2-depletion at 200 uM measured upto 24 hrs by TNB2-depletion assay; assay type: physicochemical
# [4] = molecular target: T3, Proteasome subunit beta type-8 (Homo sapiens) (UniProt P28062); experiment: Inhibition of human chymotrypsin-like beta 5i subunit of iCP assessed as residual activity using suc-LLVY-AMC as flurogenic substrate at 100 uM for 90 mins by fluorescence-based assay
# T3 sequence (whole entry): T1 sequence (P28062 whole entry)
# [5] = molecular target: T3, Proteasome subunit beta type-8 (Homo sapiens); experiment: Inhibition of human chymotrypsin-like beta 5i subunit of iCP assessed as residual activity using suc-LLVY-AMC as flurogenic substrate at 10 uM for 90 mins by fluorescence-based assay
# [6] = molecular target: T3, Proteasome subunit beta type-8 (Homo sapiens); experiment: Inhibition of human chymotrypsin-like beta 5i subunit of iCP assessed as residual activity using suc-LLVY-AMC as flurogenic substrate at 150 uM for 90 mins by fluorescence-based assay
# [7] = Glutathione reactivity of compound at pH 9 measured by HPLC-MS assay; assay type: physicochemical
# [8] = Glutathione reactivity of compound at pH 7.5 measured by HPLC-MS assay; assay type: physicochemical
# [9] = Glutathione reactivity of compound at pH 8 measured by HPLC-MS assay; assay type: physicochemical
# [10] = Glutathione reactivity of compound at pH 8.5 measured by HPLC-MS assay; assay type: physicochemical
# [11] = molecular target: T4, Proteasome Macropain subunit MB1 (Homo sapiens, UniProt P28074); experiment: Inhibition of beta 5 chymotrypsin-like activity (unknown origin) using Suc-LLVY-AMC as substrate for 90 mins by fluorescence based assay
# T4 sequence (P28074 whole entry): T2 sequence (whole entry)
smiles,measurement,setting,value
S=c1[nH]c2cccc(Cl)c2[nH]1,IC50,[1],60 µM
S=c1[nH]c2cccc(Br)c2s1,IC50,[1],11 µM
same,Activity,[2],84%
same,Drug metabolism,[3],Metabolite_Detected
O=C(Nc1ccc2[nH]c(=S)sc2c1)[C@H]1CCCN1,IC50,[1],95 µM
Sc1nc2ccccc2[nH]1 [2-MERCAPTOBENZIMIDAZOLE],IC50,[1],114 µM
same,Activity,[2],100%
same,Drug metabolism,[3],Metabolite_Notdetected
Nc1ccc2[nH]c(=S)oc2c1,IC50,[1],27 µM
Cc1ccc2sc(=S)[nH]c2c1,Activity,[4],56%
CCOc1ccc2nc(S)sc2c1,IC50,[1],9 µM
Sc1nc2ccccc2s1 [2-MERCAPTOBENZOTHIAZOLE],IC50,[1],13 µM
same,Activity,[2],85%
same,Drug metabolism,[3],Metabolite_Detected
CC(=O)Nc1ccc2[nH]c(=S)n(C)c2c1,IC50,[1],149 µM
COc1ccc2[nH]c(S)nc2c1,Activity,[5],97%
CC(=O)Nc1ccc2[nH]c(=S)[nH]c2c1,Activity,[5],57%
Cn1c(=S)[nH]c2c(Cl)cccc21,Activity,[6],50%
N#Cc1nc2cccc(Cl)c2s1,IC50,[1],18 µM
same,Activity,[2],72%
O=C(CCc1cccnc1)Nc1ccc2[nH]c(=S)sc2c1,IC50,[1],26 µM
Nc1ccc2nc(S)sc2c1,Activity,[4],80%
Sc1nc2cc(Cl)ccc2[nH]1,Drug metabolism,[7],Metabolite_Notdetected
same,IC50,[1],62 µM
same,Activity,[2],98%
same,Drug metabolism,[3],Metabolite_Notdetected
same,Drug metabolism,[8],Metabolite_Notdetected
same,Drug metabolism,[9],Metabolite_Notdetected
same,Drug metabolism,[10],Metabolite_Notdetected
CS(=O)(=O)c1nc2ccccc2s1,Activity,[4],88%
Cc1ccc2[nH]c(=S)oc2c1,IC50,[1],30 µM
same,Activity,[2],92%
same,Drug metabolism,[3],Metabolite_Detected
COc1ccc2sc(=S)[nH]c2c1,IC50,[1],7.2 µM
N#Cc1nc2cc(Cl)ccc2o1,IC50,[1],67 µM
same,Activity,[2],101%
Cn1c(=S)[nH]c2cccc(N)c21,Activity,[4],63%
S=c1[nH]c2cccc(Cl)c2s1,Drug metabolism,[7],Metabolite_Notdetected
same,IC50,[1],9.7 µM
same,Activity,[2],59%
same,Drug metabolism,[3],Metabolite_Detected
same,Drug metabolism,[8],Metabolite_Notdetected
same,Drug metabolism,[9],Metabolite_Notdetected
same,Drug metabolism,[10],Metabolite_Notdetected
S=c1[nH]c2cccc(-c3ccccc3)c2s1,Activity,[4],54%
O=C(Nc1cccc2[nH]c(=S)oc12)c1ccccc1,IC50,[1],129 µM
N#Cc1nc2ccccc2[nH]1,Activity,[4],89%
CCOc1ccc2[nH]c(S)nc2c1,Activity,[5],80%
same,Activity,[2],95%
same,Drug metabolism,[3],Metabolite_Notdetected
COc1ccc2oc(=S)[nH]c2c1,Activity,[4],59%
Cn1c(=S)[nH]c2ccc(N)cc21,Activity,[4],67%
N#Cc1nc2c(Cl)cccc2s1,IC50,[1],85 µM
O=[N+]([O-])c1ccc2oc(=S)[nH]c2c1,Drug metabolism,[7],Metabolite_Notdetected
same,IC50,[1],9 µM
same,Drug metabolism,[8],Metabolite_Notdetected
same,Drug metabolism,[9],Metabolite_Notdetected
same,Drug metabolism,[10],Metabolite_Notdetected
N#Cc1cccc(-c2cccc3[nH]c(=S)sc23)c1,Activity,[4],70%
CC(=O)Nc1ccc2[nH]c(=S)oc2c1,Activity,[4],63%
Cn1c(=S)[nH]c2cccc(NC(=O)c3ccccc3)c21,Activity,[4],47%
Sc1nc2ccccc2o1,IC50,[1],17 µM
same,Activity,[2],116%
same,Drug metabolism,[3],Metabolite_Detected
S=c1[nH]c2cccc(Cl)c2o1,Drug metabolism,[7],Metabolite_Notdetected
same,IC50,[1],16 µM
same,Activity,[2],94%
same,Drug metabolism,[3],Metabolite_Detected
same,Drug metabolism,[8],Metabolite_Notdetected
same,Drug metabolism,[9],Metabolite_Notdetected
same,Drug metabolism,[10],Metabolite_Notdetected
Cn1c(=S)[nH]c2cccc(Cl)c21,Drug metabolism,[7],Metabolite_Notdetected
same,IC50,[1],1.8 µM
same,Activity,[2],99%
same,Drug metabolism,[3],Metabolite_Detected
same,Drug metabolism,[8],Metabolite_Notdetected
same,Drug metabolism,[9],Metabolite_Notdetected
same,Drug metabolism,[10],Metabolite_Notdetected
Cn1c(C#N)nc2cccc(Cl)c21,IC50,[1],20 µM
same,Activity,[2],89%
CC(=O)Nc1ccc2[nH]c(=S)sc2c1,IC50,[1],130 µM
Nc1cccc2[nH]c(=S)oc12,IC50,[1],79 µM
S=c1[nH]c2c(Cl)cccc2s1,Drug metabolism,[7],Metabolite_Notdetected
same,IC50,[1],43 µM
same,Drug metabolism,[8],Metabolite_Notdetected
same,Drug metabolism,[9],Metabolite_Notdetected
same,Drug metabolism,[10],Metabolite_Notdetected
O=C(Cc1cccnc1)Nc1ccc2[nH]c(=S)oc2c1,Activity,[4],50%
S=c1[nH]c2cccc(Br)c2[nH]1,Activity,[4],87%
N#Cc1nc2ccc(Cl)cc2[nH]1,IC50,[1],28 µM
same,Activity,[2],71%
Nc1ccc2[nH]c(S)nc2c1,Activity,[5],49%
Sc1nc2cc(Cl)ccc2o1,Drug metabolism,[7],Metabolite_Notdetected
same,IC50,[1],96 µM
same,Drug metabolism,[8],Metabolite_Notdetected
same,Drug metabolism,[9],Metabolite_Notdetected
same,Drug metabolism,[10],Metabolite_Notdetected
N#Cc1nc2ccccc2o1,IC50,[1],83 µM
same,Activity,[2],82%
Cn1c(=S)[nH]c2ccc(NC(=O)Cc3cccnc3)cc21,Activity,[4],89%
C=CC(=O)Nc1nc2ccccc2n1C,Activity,[4],83%
O=[N+]([O-])c1ccc2nc(S)sc2c1,Drug metabolism,[7],Metabolite_Notdetected
same,Drug metabolism,[8],Metabolite_Notdetected
same,Drug metabolism,[9],Metabolite_Notdetected
same,Drug metabolism,[10],Metabolite_Notdetected
same,Activity,[4],69%
O=C(Nc1ccc2nc(S)sc2c1)c1ccccc1,IC50,[1],7.1 µM
O=C(Cc1cccnc1)Nc1cccc2[nH]c(=S)oc12,IC50,[1],156 µM
N#Cc1nc2cccc(Cl)c2[nH]1,IC50,[1],75 µM
same,Activity,[2],82%
Cn1c(C#N)nc2ccc(Cl)cc21,Activity,[4],50%
COc1cccc2oc(=S)[nH]c12,IC50,[1],81 µM
Cn1c(S)nc2ccccc21,IC50,[1],94 µM
same,Activity,[2],91%
same,Drug metabolism,[3],Metabolite_Notdetected
Cn1c(C#N)nc2ccccc21,Activity,[4],99%
N#Cc1nc2ccccc2s1,Activity,[4],61%
O=C(Cc1cccnc1)Nc1ccc2[nH]c(=S)sc2c1,IC50,[1],15 µM
O=C(Nc1ccc2[nH]c(=S)oc2c1)[C@H]1CCCN1,Activity,[4],65%
Cc1ccc2oc(=S)[nH]c2c1,Activity,[4],99%
N#Cc1nc2ccc(Cl)cc2s1,Activity,[4],58%
Cn1c(=S)[nH]c2ccc([N+](=O)[O-])cc21,Activity,[4],52%
O=C(CCc1cccnc1)Nc1ccc2[nH]c(=S)oc2c1,Activity,[4],56%
Sc1nc2cc(Cl)ccc2s1,IC50,[1],32 µM
Cn1c(=S)[nH]c2cccc(NC(=O)CCc3cccnc3)c21,Activity,[4],92%
C=CC(=O)Nc1nc2ccccc2s1,Activity,[4],44%
Cn1c(=S)[nH]c2ccc(NC(=O)[C@H]3CCCN3)cc21,IC50,[1],109 µM
N#Cc1nc2cccc(Cl)c2o1,IC50,[1],10 µM
same,IC50,[11],93 µM
O=[N+]([O-])c1ccc2sc(=S)[nH]c2c1,Drug metabolism,[7],Metabolite_Notdetected
same,Drug metabolism,[8],Metabolite_Notdetected
same,Drug metabolism,[9],Metabolite_Notdetected
same,Drug metabolism,[10],Metabolite_Notdetected
same,Activity,[4],58%
Oc1cccc2oc(S)nc12,IC50,[1],4.1 µM
same,Activity,[2],87%
same,Drug metabolism,[3],Metabolite_Detected
Cc1cccc2[nH]c(=S)[nH]c12,Activity,[5],84%
C=CS(=O)(=O)c1nc2ccccc2s1,Activity,[4],40%
Cn1c(=S)[nH]c2cccc(NC(=O)Cc3cccnc3)c21,Activity,[4],94%
S=c1[nH]c2c(Cl)cccc2o1,IC50,[1],36 µM
O=C(CCl)Nc1nc2ccccc2s1,Activity,[4],73%
COc1ccc2[nH]c(=S)sc2c1,IC50,[1],13 µM
Cc1ccc2[nH]c(=S)[nH]c2c1,Activity,[5],95%
Cn1c(=S)[nH]c2ccc(NC(=O)CCc3cccnc3)cc21,Activity,[4],72%
O=C(Nc1ccc2[nH]c(=S)oc2c1)c1ccccc1,IC50,[1],49 µM
Cn1c(S)nc2ccc(Cl)cc21,Drug metabolism,[7],Metabolite_Notdetected
same,IC50,[1],4.2 µM
same,Activity,[2],94%
same,Drug metabolism,[3],Metabolite_Detected
same,Drug metabolism,[8],Metabolite_Notdetected
same,Drug metabolism,[9],Metabolite_Notdetected
same,Drug metabolism,[10],Metabolite_Notdetected
COC(=O)c1ccc2[nH]c(=S)oc2c1,IC50,[1],3 µM
S=c1[nH]c2ccc(Cl)cc2o1,Drug metabolism,[7],Metabolite_Notdetected
same,IC50,[1],65 µM
same,Drug metabolism,[8],Metabolite_Notdetected
same,Drug metabolism,[9],Metabolite_Notdetected
same,Drug metabolism,[10],Metabolite_Notdetected
